Read-outs that look alike come from different tables or passages of the source.
Key:
Streptococcus agalactiae = experiment: Antibiotic assay (resazurin, Example 1), Streptococcus agalactiae; assay type: cell-based; settings: for IC50: read-out: IC50
Experimental: (§1) Bacteria Strain. […] The MRSA were obtained as further described below.
(§2) Antibiotic agents. Cyprofloxacin and erythromycin were provided by Sigma-Aldrich. Gentamicin sulfate and vancomycin hydrochloride were provided by Calbiochem.
(§3) Five additional strains were tested: Streptococcus pneumoniae, Streptococcus agalactiae, Streptococcus pyogenes, Enterococcus faecalis and Corynebacterium jeikeium.

E. coli (ATCC25922) = experiment: Antibiotic assay of extracts and fractions (resazurin, Example 6), E. coli; assay type: cell-based
Excerpt: (§4) Antibiotic agents. Gentamicin sulfate was provided by Calbiochem.

Enterococcus faecalis = experiment: Antibiotic assay (resazurin, Example 1), Enterococcus faecalis; assay type: cell-based; settings: for IC50: read-out: IC50
Experimental: as §1, §2, §3

MRSAs (1, 2 and 3) = experiment: Antibiotic assay of extracts and fractions (resazurin, Example 6), MRSA 1, 2 and 3; assay type: cell-based, Staphylococcus aureus
Excerpt: as §4

Corynebacterium jeikeium = experiment: Antibiotic assay (resazurin, Example 1), Corynebacterium jeikeium; assay type: cell-based; settings: Coryne. jeikeium 14139
Experimental: as §1, §2, §3

S. aureus = experiment: Antibiotic assay (resazurin, Example 1), S. aureus strains of Table 3; assay type: cell-based, Staphylococcus aureus; settings: for IC50: read-out: IC50
Excerpt: as §1, §2

Streptococcus pneumoniae = experiment: Antibiotic assay (resazurin, Example 1), Streptococcus pneumoniae; assay type: cell-based; settings: for IC50: read-out: IC50
Experimental: as §1, §2, §3

[1] = test system: S. aureus wild type strain (ATCC25923); experiment: Antibiotic assay of extracts and fractions (resazurin, Example 6), S. aureus wild type; assay type: cell-based, Staphylococcus aureus; settings: S. aureus WT
Excerpt: as §4

Streptococcus pyogenes = experiment: Antibiotic assay (resazurin, Example 1), Streptococcus pyogenes; assay type: cell-based; settings: for IC50: read-out: IC50
Experimental: as §1, §2, §3

S. epidermidis = experiment: Antibiotic assay (resazurin, Example 1), S. epidermidis strains
Experimental: The antibiotic assays were performed in 96-well plates (BD Falcon). The bacteria strains were inoculated in Nutrient Broth (BD) for the gram negative bacteria and Tryptic soy broth (BD) with 10% of defibrinated sheep blood (PML microbiological) for gram positive strain. All bacteria strains were dosed by spectrophotometry at 660 nm where 1 D.O=2×10^8 bacteria/mL. All bacteria were plated in their respective broth at a concentration of 450 000 bacteria/mL.
Compounds I, II and III were diluted in methanol and the above-noted antibiotic agents were diluted in water. The solvent concentration was 0.25%, which was not toxic for the bacteria. Compounds I, II and III and the above-noted antibiotic agents were tested at 8 different concentrations.
Each well contained: 100 μL of bacteria, 50 μL of the compounds tested (compound I, II, III or the above-noted antibiotic agent) and 50 μL of a 4% resazurin (Sigma) solution. The plates were incubated at 37° C. for 5 h. The fluorescence was read using a Fluoroskan Ascent™ FL (thermo) using an excitation wavelength of 530 nm and an emission wavelength of 590 nm.
Two different strains of Staphylococcus were tested, namely the S. epidermidis and the S. aureus strains.

## Gentamicin sulfate [reference compound]
Streptococcus agalactiae; Strep. agalactiae 14150
  Minimum Inhibitory Concentration (MIC): (>20) μM
  IC50: > 20000 nM
Streptococcus agalactiae; Strep. agalactiae 14151
  Minimum Inhibitory Concentration (MIC): (>20) μM
  IC50: > 20000 nM
Streptococcus agalactiae; Strep. agalactiae 14153
  Minimum Inhibitory Concentration (MIC): (>20) μM
  IC50: > 20000 nM
E. coli (ATCC25922)
  IC50: 9 ± 1 ng/mL
  MIC: 19 ng/mL
Enterococcus faecalis; Ent. Faecalis 14078
  Minimum Inhibitory Concentration (MIC): (>20) μM
  IC50: 11000 ± 1000 nM
Enterococcus faecalis; Ent. Faecalis 14115
  Minimum Inhibitory Concentration (MIC): (>20) μM
  IC50: > 20000 nM
MRSAs (1, 2 and 3); MRSA 1
  IC50: <5 ng/mL
  MIC: <5 ng/mL
MRSAs (1, 2 and 3); MRSA 2
  IC50: <5 ng/mL
  MIC: <5 ng/mL
MRSAs (1, 2 and 3); MRSA 3
  IC50: 6 ± 0.4 ng/mL
  MIC: 19 ng/mL
Corynebacterium jeikeium
  Minimum Inhibitory Concentration (MIC): (9.1) μM
Corynebacterium jeikeium; read-out: IC50
  IC50: 920 ± 70 nM
S. aureus; S. aureus 14094
  Minimum Inhibitory Concentration (MIC): (0.04) μM
  IC50: < 6 nM
S. aureus; S. aureus 14108
  Minimum Inhibitory Concentration (MIC): (0.05) μM
  IC50: 16 ± 3 nM
S. aureus; S. aureus 14118
  Minimum Inhibitory Concentration (MIC): (0.02) μM
  IC50: 8 ± 1 nM
S. aureus; S. aureus 14154
  Minimum Inhibitory Concentration (MIC): (0.04) μM
  IC50: < 16 nM
Streptococcus pneumoniae; Strep. pneumoniae 14070
  Minimum Inhibitory Concentration (MIC): (>20) μM
  IC50: 4000 ± 2000 nM
Streptococcus pneumoniae; Strep. pneumoniae 14112
  Minimum Inhibitory Concentration (MIC): (>20) μM
  IC50: > 20000 nM
Streptococcus pneumoniae; Strep. pneumoniae 14138
  Minimum Inhibitory Concentration (MIC): (>20) μM
  IC50: > 20000 nM
Streptococcus pneumoniae; Strep. pneumoniae 14144
  Minimum Inhibitory Concentration (MIC): (>20) μM
  IC50: > 20000 nM
Streptococcus pneumoniae; Strep. pneumoniae 14148
  Minimum Inhibitory Concentration (MIC): (>20) μM
  IC50: > 20000 nM
[1]
  IC50: <5 ng/mL
  MIC: <5 ng/mL
Streptococcus pyogenes; Strep. pyogenes 14149
  Minimum Inhibitory Concentration (MIC): (>20) μM
  IC50: > 20000 nM
Streptococcus pyogenes; Strep. pyogenes 14152
  Minimum Inhibitory Concentration (MIC): (>20) μM
  IC50: > 20000 nM
S. epidermidis; S. epidermidis 14069
  IC50: < 6 nM
  Minimum Inhibitory Concentration (MIC): (2.51) μM
S. epidermidis; S. epidermidis 14085
  IC50: < 6 nM
  Minimum Inhibitory Concentration (MIC): (1.19) μM
S. epidermidis; S. epidermidis 14093
  IC50: < 6 nM
  Minimum Inhibitory Concentration (MIC): (1.25) μM
S. epidermidis; S. epidermidis 14134
  IC50: 130 ± 10 nM
  Minimum Inhibitory Concentration (MIC): (0.8) μM
S. epidermidis; S. epidermidis 14143
  IC50: 200 ± 30 nM
  Minimum Inhibitory Concentration (MIC): (>2) μM
